Measurements: ChEMBL document CHEMBL5108009, “Positron Emission Tomography (PET) Imaging Tracers for Serotonin Receptors” (J Med Chem, 2022)

Columns and labels:
[1] = target: T1, 5-hydroxytryptamine receptor 7 (Homo sapiens, UniProt P34969); assay: Binding affinity to human recombinant 5-HT7 receptor expressed in CHO cells assessed as inhibition constant; format: cell-based
[2] = Binding affinity to pig 5-HT1B receptor (unknown origin) assessed as inhibition constant
[3] = target: T2, 5-hydroxytryptamine receptor 1A (Homo sapiens, UniProt P08908)
T2 sequence (P08908 whole entry): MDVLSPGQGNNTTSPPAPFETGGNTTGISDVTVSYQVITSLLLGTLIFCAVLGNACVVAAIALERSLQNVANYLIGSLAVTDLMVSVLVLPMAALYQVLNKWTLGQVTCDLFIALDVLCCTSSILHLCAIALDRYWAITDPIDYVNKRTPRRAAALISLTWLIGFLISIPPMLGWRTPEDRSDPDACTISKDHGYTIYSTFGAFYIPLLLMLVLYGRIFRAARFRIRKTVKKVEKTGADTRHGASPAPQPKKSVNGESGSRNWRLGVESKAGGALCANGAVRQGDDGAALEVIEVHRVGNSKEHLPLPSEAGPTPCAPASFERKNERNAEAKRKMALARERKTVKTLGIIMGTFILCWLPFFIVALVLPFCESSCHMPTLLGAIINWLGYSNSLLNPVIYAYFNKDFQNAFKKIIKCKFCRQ

[4] = Ratio of drug uptake in rat hippocampus to cerebellum by measuring radioactivity at […], iv; format: ADME, tissue-based; details: in vivo, dose 25-30 mCi
[5] = Drug uptake in pig brain cortex assessed as non-displaceable binding potential; format: ADME, tissue-based, Sus scrofa; details: in vivo
[6] = target: 5-hydroxytryptamine receptor 2B (Homo sapiens, UniProt P41595)
[7] = target: T2, 5-hydroxytryptamine receptor 1A; remark: listed apart in the source
[8] = target: 5-hydroxytryptamine receptor 1B (Homo sapiens, UniProt P28222)
[9] = target: T1, 5-hydroxytryptamine receptor 7
[10] = target: T3, 5-hydroxytryptamine receptor 2C (Homo sapiens, UniProt P28335)
T3 sequence (P28335 whole entry): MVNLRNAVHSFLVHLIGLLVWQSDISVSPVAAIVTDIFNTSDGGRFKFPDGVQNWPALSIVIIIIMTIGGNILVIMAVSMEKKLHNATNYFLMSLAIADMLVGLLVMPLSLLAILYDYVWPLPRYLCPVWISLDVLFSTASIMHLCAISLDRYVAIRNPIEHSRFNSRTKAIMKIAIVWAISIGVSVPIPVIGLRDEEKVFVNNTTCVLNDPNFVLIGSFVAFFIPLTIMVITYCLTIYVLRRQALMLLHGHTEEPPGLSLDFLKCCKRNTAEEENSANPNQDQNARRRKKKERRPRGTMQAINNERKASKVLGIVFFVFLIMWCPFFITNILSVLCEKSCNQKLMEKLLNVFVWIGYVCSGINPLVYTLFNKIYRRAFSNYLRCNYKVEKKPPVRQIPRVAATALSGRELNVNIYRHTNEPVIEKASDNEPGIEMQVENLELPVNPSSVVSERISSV

[11] = target: 5-hydroxytryptamine receptor 1D (Homo sapiens, UniProt P28221); assay: Binding affinity to 5-HT1D (unknown origin) assessed as inhibition constant
[12] = target: 5-hydroxytryptamine receptor 5A (Homo sapiens, UniProt P47898); assay: Binding affinity to 5-HT5A receptor (unknown origin) assessed as inhibition constant
[13] = target: T4, Alpha-1A adrenergic receptor (Homo sapiens, UniProt P35348); assay: Binding affinity to alpha 1A adrenergic receptor (unknown origin) assessed as inhibition constant
T4 sequence (P35348 whole entry): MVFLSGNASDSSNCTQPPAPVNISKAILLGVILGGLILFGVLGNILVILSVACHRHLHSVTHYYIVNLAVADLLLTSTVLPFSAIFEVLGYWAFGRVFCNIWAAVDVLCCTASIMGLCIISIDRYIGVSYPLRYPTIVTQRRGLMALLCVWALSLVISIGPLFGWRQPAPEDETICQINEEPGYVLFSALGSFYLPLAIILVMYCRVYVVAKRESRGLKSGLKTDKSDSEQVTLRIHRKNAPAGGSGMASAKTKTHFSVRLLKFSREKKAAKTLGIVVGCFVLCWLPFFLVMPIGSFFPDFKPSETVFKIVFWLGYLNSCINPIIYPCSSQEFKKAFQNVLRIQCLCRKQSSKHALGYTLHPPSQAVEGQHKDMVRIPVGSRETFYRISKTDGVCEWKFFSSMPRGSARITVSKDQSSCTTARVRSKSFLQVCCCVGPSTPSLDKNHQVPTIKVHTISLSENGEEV

[14] = Ratio of drug uptake in rat temporal cortex to cerebellum by measuring radioactivity at 10 mins postinjection; format: ADME, organism-based; details: in vivo
[15] = Ratio of drug uptake in rat temporal cortex to cerebellum by measuring radioactivity at 20 mins postinjection; format: ADME, organism-based; details: in vivo
[16] = Ratio of drug uptake in rhesus monkey temporal cortex to cerebellum assessed as non-displaceable binding potential; format: ADME, tissue-based, Macaca mulatta; details: in vivo
[17] = Drug uptake in cynomolgus monkey in brain administered IV measured at 7.5 mins relative to control; format: ADME, tissue-based, Macaca fascicularis; details: in vivo, 0.125 h
[18] = Drug uptake in pig brain cortex measured at 10 to 20 mins postinjection; format: ADME, organism-based, Sus scrofa; details: in vivo, time 10-20 min
[19] = target: T5, 5-hydroxytryptamine receptor 1A (Rattus norvegicus, UniProt P19327)
T5 sequence (P19327 whole entry): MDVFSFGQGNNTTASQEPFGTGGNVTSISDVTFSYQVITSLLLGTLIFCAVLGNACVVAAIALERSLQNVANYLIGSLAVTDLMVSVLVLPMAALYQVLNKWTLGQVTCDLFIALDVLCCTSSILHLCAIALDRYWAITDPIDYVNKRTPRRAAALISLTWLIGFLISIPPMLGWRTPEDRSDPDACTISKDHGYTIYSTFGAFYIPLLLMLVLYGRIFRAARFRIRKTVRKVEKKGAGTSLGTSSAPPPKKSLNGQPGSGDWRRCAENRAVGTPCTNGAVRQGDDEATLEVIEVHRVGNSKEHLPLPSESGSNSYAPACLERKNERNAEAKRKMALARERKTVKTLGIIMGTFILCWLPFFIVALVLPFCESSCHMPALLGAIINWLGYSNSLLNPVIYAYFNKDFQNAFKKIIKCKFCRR

[20] = target: 5-hydroxytryptamine receptor 2A (Homo sapiens, UniProt P28223)
Chain of 5-hydroxytryptamine receptor 2A (P28223 whole entry): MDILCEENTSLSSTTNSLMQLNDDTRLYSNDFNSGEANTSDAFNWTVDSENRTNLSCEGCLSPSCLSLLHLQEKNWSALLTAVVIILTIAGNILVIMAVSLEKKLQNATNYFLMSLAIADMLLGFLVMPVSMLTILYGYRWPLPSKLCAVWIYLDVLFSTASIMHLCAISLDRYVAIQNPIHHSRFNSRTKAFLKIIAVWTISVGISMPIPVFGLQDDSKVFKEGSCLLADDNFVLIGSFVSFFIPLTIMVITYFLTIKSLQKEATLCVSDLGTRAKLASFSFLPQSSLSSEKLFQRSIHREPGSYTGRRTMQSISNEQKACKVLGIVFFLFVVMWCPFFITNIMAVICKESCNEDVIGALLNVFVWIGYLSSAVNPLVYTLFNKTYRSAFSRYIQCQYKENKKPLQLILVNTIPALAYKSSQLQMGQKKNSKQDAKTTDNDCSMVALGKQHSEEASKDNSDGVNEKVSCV

T1 sequence (P34969 whole entry): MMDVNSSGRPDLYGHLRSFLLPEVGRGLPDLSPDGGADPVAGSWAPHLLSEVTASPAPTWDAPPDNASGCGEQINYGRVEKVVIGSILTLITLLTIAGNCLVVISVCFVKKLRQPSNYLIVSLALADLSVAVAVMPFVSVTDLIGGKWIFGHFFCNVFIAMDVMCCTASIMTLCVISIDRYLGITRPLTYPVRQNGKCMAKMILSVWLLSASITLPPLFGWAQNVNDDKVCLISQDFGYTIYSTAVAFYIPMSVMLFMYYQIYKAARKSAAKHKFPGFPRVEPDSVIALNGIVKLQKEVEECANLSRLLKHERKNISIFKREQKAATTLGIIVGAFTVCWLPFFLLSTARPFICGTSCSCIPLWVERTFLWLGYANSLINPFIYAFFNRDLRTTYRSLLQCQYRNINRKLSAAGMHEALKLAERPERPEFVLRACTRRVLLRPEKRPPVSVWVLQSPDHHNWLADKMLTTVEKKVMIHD
Chain of 5-hydroxytryptamine receptor 2B (P41595 whole entry): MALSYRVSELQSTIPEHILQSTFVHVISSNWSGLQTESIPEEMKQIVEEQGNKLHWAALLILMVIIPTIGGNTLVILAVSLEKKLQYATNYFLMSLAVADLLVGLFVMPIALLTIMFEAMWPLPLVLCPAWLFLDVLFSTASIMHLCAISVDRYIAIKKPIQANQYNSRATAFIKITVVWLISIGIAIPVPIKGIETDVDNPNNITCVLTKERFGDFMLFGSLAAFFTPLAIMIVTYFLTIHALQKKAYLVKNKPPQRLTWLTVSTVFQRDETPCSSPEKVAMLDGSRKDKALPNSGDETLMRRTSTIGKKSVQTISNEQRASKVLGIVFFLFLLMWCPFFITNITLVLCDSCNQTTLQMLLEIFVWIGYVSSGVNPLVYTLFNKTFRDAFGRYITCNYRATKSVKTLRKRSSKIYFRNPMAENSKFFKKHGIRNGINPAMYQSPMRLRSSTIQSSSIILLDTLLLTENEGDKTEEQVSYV
Chain of 5-hydroxytryptamine receptor 5A (P47898 whole entry): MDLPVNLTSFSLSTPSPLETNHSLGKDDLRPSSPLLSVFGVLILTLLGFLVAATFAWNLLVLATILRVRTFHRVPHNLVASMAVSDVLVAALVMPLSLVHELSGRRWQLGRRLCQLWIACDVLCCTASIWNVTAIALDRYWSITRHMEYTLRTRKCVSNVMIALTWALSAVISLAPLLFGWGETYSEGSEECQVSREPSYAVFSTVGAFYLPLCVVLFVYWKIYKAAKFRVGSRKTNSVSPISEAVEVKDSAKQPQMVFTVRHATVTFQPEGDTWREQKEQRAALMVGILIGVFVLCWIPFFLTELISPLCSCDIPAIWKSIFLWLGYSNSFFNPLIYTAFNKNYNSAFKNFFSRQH
Chain of 5-hydroxytryptamine receptor 1B (P28222 whole entry): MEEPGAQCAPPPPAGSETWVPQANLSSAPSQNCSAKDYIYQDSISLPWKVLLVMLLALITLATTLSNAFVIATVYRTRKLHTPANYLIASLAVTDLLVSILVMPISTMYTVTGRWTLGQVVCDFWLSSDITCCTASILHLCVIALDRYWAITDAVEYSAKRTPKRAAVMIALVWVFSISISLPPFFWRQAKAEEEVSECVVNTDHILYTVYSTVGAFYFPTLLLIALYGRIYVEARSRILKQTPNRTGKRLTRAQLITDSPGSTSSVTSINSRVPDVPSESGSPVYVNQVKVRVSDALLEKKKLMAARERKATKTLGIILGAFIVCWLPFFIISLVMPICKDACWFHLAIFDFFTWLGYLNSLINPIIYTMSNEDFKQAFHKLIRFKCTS
Chain of 5-hydroxytryptamine receptor 1D (P28221 whole entry): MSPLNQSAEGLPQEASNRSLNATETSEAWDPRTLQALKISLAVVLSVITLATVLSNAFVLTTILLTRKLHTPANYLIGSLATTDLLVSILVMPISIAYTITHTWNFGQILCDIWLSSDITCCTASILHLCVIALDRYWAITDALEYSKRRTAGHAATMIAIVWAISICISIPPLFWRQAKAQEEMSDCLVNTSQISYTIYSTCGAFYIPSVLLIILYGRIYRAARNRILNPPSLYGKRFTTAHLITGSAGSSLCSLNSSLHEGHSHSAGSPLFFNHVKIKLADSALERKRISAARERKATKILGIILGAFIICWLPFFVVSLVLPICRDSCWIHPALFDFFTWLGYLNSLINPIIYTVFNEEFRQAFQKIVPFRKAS

O=S(=O)(c1ccccc1F)N1CCC[C@@H]1CCCN1CCN(c2ccccn2)CC1
Ki [1]: 0.17 nM

[11CH3]N1CCN(c2cccc3c2O[C@@H](C(=O)Nc2ccc(N4CCOCC4)cc2)CC3)CC1
Ki [2]: 0.3 nM

O=S(=O)(c1ccccc1F)N1CCC[C@@H]1CCCN1CCN(c2ccc(Cl)cc2)CC1
Ki [1]: 0.22 nM

[11CH3]Oc1ccccc1N1CCN(CCCN/C(=N\C#N)c2ccccn2)CC1
Ki [3]: 0.8 nM

CC1CCN(CCC[C@H]2CCCN2S(=O)(=O)c2ccccc2F)CC1
Ki [1]: 7.6 nM

O=S(=O)(c1ccc(F)cc1)N1CCC[C@@H]1CCCN1CCN(c2ccc(Cl)cc2)CC1
Ki [1]: 0.32 nM

O=C(C1CCCCC1)N(CCN1CCN(c2ccccc2OCCC[18F])CC1)c1ccccn1
Ratio [4]: 7.5

COc1cc(CCN)c(O[11CH3])cc1I
Drug uptake [5]: 0.17

CC(C)c1cc(-c2ccc(F)c3ccccc23)nc(N)n1
Ki [6]: 0.3 nM

CC(=O)Nc1ccc2[nH]cc(C3CCN(C)CC3)c2n1
Ki [7]: > 240 nM | Ki [8]: > 240 nM | Ki [9]: > 240 nM | Ki [10]: > 240 nM | Ki [6]: > 240 nM | Ki [11]: > 240 nM | Ki [12]: > 240 nM

COc1ccccc1N1CCN(CCN(C(=O)c2ccc(F)c(C)c2)c2ccccn2)CC1
Ki [13]: 13 nM

[11CH3]N1CCN(c2cccc3c2OC(C(=O)Nc2ccc(N4CCOCC4)cc2)CC3)CC1 (racemic)
Ki [2]: 0.4 nM

COc1ccccc1N1CCN(CCN(c2cccc(Br)n2)[11C](=O)N2CCCCC2)CC1
Ratio [14]: 1.9 | Ratio [15]: 3

COc1ccccc1N1CCN(CCN(c2cccc(F)n2)[11C](=O)N2CCCCC2)CC1
Ratio [14]: 1.9 | Ratio [15]: 3

COc1ccccc1N1CCN(CCN(c2ccccn2)C(=O)[C@H]2CC[C@@H](C[18F])CC2)CC1
Ratio [16]: 0.58

O=C(C1CCCCC1)N(CCN1CCN(c2ccccc2OCC[18F])CC1)c1ccccn1
Ratio [4]: 5.5

COC(=O)N1CCN(c2ccc(NC(=O)C3CCc4cc(F)cc(N5CCN([11CH3])CC5)c4O3)cc2)CC1 (stereo unspecified)
Ki [2]: 0.5 nM

COc1ccccc1N1CCN(CCCN/C(=N\C#N)c2ccccn2)CC1
Ki [13]: 20 nM

COc1ccccc1N1CCN(CCN(c2cccc(F)n2)[11C](=O)C2CCCCC2)CC1
Drug uptake [17]: 8%

COc1cc(Br)c(O[11CH3])cc1CCNCc1ccccc1OC
SUV [18]: 0.8

CCCN(CCCCC1C(=O)CC2(CCCC2)CC1=O)[C@H]1CCc2cccc(OC)c2C1
Ki [3]: 0.9 nM

O=C(NCCN1CCN(c2cccc(C(F)(F)F)n2)CC1)c1ccc(F)cc1
Ki [3]: 0.5 nM

COc1ccccc1N1CCN(CCNC(=O)C2CC3CCC2CC3)CC1 (stereo unspecified)
IC50 [19]: 1 nM

COc1cccc2c1CCCC2CCCN1CCN(c2ccccc2)CC1 (stereo unspecified)
Ki [3]: 0.5 nM

CC1CCN(CCC[C@H]2CCCN2S(=O)(=O)c2ccc(F)cc2)CC1
Ki [1]: 16 nM

COc1cc(Br)c(OC)c(CCNCc2cccc(F)c2)c1
Ki [20]: 2.7 nM

CN1CCN(c2cccc3c2C[C@@H](NC(=O)c2ccc(N4CCOCC4)cc2)CC3)CC1
Ki [2]: 0.46 nM

COc1c(Br)cc([18F])cc1CCNCc1cccc2c1OCO2
Ki [20]: 1.7 nM
